Measured values from patent EP1296995B1, “3'-PRODRUGS OF 2'-DEOXY-BETA-L-NUCLEOSIDES” (priority 2000, dated 2001).
Values after ≈ are worked out from the molar mass of the structure shown. “Also recorded” adds a separate entry of the source. Counter-ions that a name gives are not always drawn. Like-named read-outs stand apart in the source and are kept apart here.

What was measured:
[1] = physchem
Procedure: (§1) To 1 mL of this solution, 1 mL of octanol-1 (B) saturated with 0.02 M phosphate buffer solution (A) was added. The resultant mixture was shaken and centrifuged; three samples from each phase was collected and analyzed by HPLC, as shown in Table 10. […]
as §1, with “The solution was then saturated with octanol-1 (B). To” for “To”, “11.” for “10.”

[2] = in vivo; conditions: monkey, po
[3] = Log P' study, MilliQ water / octanol-1; type: physicochemical; conditions: for P' (B/A'): MilliQ water pH 6.5 (A') / octanol-1 (B), Study 1 and Study 2
[4] = in vivo; set-up: species or system cynomologus monkeys (macaca fascicularis); conditions: cynomolgus monkey
Excerpt: The drug was quantitated in plasma and urine with a liquid chromatography-mass spectrometry (LC-MS) technique.

[5] = Oral bioavailability of L-dC via dival-L-dC (HPLC); conditions: cynomolgus monkey
Excerpt: The drug was quantitated in plasma and in urine using HPLC analysis.

[6] = in vivo; conditions: rat, po
[7] = in vivo; conditions: monkey
Excerpt: […]. […] Clinical observations were documented daily. Blood samples for hematology and serum chemistries were collected and body weight measured before treatment on Days 1, 4, 7, 10, and 14, and before necropsy on Day 17. After completion of Day 17 evaluations, all animals were euthanized and a complete necropsy performed, including macroscopic examination and comprehensive tissue collection.

[8] = in vivo; conditions: rat
Procedure: Clinical observations were documented once daily. Body weights were documented before dosing on Days 1, 8, 15, 22, and 28 and before necropsy on Day 29. Food consumption was documented weekly. Blood samples for hematology and serum chemistries also were collected before necropsy on Day 29.
Toxicokinetics. An additional 54 animals (27 males and 27 females) had samples collected for pharmacokinetic analyses on Days 1 and 28. […] Analysis of the 500 mg/kg group is in progress.

[9] = in vivo; conditions: monkey, po; remark: listed apart in the source
[10] = in vitro; conditions: human, plasma
[11] = in vitro; conditions: human, plasma; remark: listed apart in the source
[12] = Stability study in buffers at various pH; type: physicochemical
[13] = physchem; conditions: water
[14] = tested on: HBV; assay: Antiviral activity against HBV in 2.2.15 cells (reduction of HBV DNA)
[15] = monkey, in vivo
[16] = in vitro; conditions: human, hepg2 cells
Excerpt: (§2) These studies included analysis of lactic acid production, mtDNA content and determination of changes in morphology (e.g., loss of cristae, matrix dissolution and swelling, and lipid droplet formation) of mitochondrial ultrastructure.

[17] = tested on: HepG2 cells; assay: in vitro
Excerpt: as §2

[18] = tested on: VZV; assay: Antiviral panel: VZV in HFF; type: cell-based
[19] = tested on: EBV; assay: Antiviral panel: EBV in Daudi; type: cell-based
[20] = tested on: WHV; assay: Woodchuck model of chronic hepatitis B infection, 28 days; type: in vivo, woodchucks
[21] = tested on: WHV; assay: Woodchuck model, twelve-week study; type: in vivo, woodchucks; conditions: 1 mg/kg/day
Procedure: WHV DNA levels were determined by quantitative PCR.

[22] = tested on: Salmonella typhimurium strains TA98, TA100, TA1535, and TA1537 and escherichia coli strain WP2uvrA; assay: S. typhimurium and E. coli plate incorporation mutation assay; type: cell-based
Procedure: L-dC was tested for its potential to cause mutation at the histidine operon of Salmonella typhimurium strains TA98, TA100, TA1535, and TA1537 and at the tryptophan opeton of escherichia coli strain WP2uvrA. L-dC at concentrations of […] plus positive and negative controls were tested. […] After incubation for approximately 68 hours, L-dC and controls were evaluated for the number of revertants per plate and integrity of the background microcolony lawn.

[23] = tested on: HIV-1; conditions: read-out: EC50 HIV-1 (PBMC)
[24] = monkey, in vivo; remark: listed apart in the source
[25] = tested on: 2.2.15; assay: Cytotoxicity in 2.2.15 cells
[26] = target: virion-associated DNA polymerase of WHV; assay: Endogenous polymerase assay, virion-associated DNA polymerase; type: biochemical
[27] = tested on: Rats Primary Hepatocytes; assay: Intracellular metabolism of L-dC in rat primary hepatocytes; conditions: 10 µM L-dC, 24 hours
[28] = tested on: Monkey Primary Hepatocytes; assay: Intracellular metabolism of L-dC in monkey primary hepatocytes; conditions: 10 µM L-dC, 24 hours, n=1
[29] = tested on: HBV; conditions: human, 2.2.15 cells
[30] = rhesus monkey, in vivo, po
[31] = 0.02 m phosphate buffer, pH 7.2

## CC(=O)OC[C@@H]1O[C@H](n2ccc(N)nc2=O)C[C@H]1OC(C)=O [3'5'-diacetyl-L-dC, 3',5'-Di-O-acetyl-2'-deoxy-β-L-cytidine]
[1]; [31]
  logD: -0.74
[2]
  bioavailability: 23 ± 6.5%

## CC(C)[C@H](N)C(=O)OC[C@@H]1O[C@H](n2ccc(N)nc2=O)C[C@H]1OC(=O)[C@@H](N)C(C)C [3'5'-dival-L-dC, 3,5'-L-Valine ester of 2'-deoxy-β-L-cytidine hydrochloride]
[1]; [31]
  logD: -0.86
[1]; octanol-1, pH 7.2
  degraded: 14%
[1]; phosphate buffer, pH 7.2
  degraded: 50%
[3]
  P' (B/A'): 1.80 x10^-3
[3]; listed as L-dC-3',5'-divalinyl ester hydrochloride, hydrochloride
  P' (B/A'): 1.77 x 10^-3
[3]; aqueous or organic phases, MilliQ water
  conversion to the monoesters or L-dC during log P' experiment: No conversion
[4]; iv
  share of drug excreted in the urine (total recovered dose): approximately 0.15%
[4]; po
  share of drug excreted in the urine (total recovered dose): No dival-L-dC was detected
[5]; urine, 10 mg/kg
  dose excreted at 8 h: ~26%
  dose excreted at 72 h: 31%
[6]
  NOAEL at 360 h: 2000 mg/kg
[7]
  RBC, HGB and HCT lower at Day 17 compared to Day 1: 15-27%
  decrease of BUN at Day 17 compared to Day 1: ~43%
[7]; po
  NOAEL: 2000 mg/kg
[8]; po
  NOAEL at […]: < 500 mg/kg
[2]
  Fa: ~73%
  bioavailability: 72.7 ± 22%
[9]
  NOAEL at 600 h: < 500 mg/kg
[10]
  half-life: ~0.65 h
[11]
  fraction unbound: 0.867

## CC(C)[C@H](N)C(=O)O[C@@H]1C[C@@H](n2ccc(N)nc2=O)O[C@H]1CO [3'-val-L-dC, 3'-valinyl ester of β-L-deoxyribocytosine]
[1]; 0.02 m phosphate buffer, pH 7.2, log P (octanol/water)
  logD: -1.53
[12]; 0.2m tris-hcl, pH 7.4
  half-life: 7 h
[12]; pH 1.2 (135 mM KCl-HCl buffer solution), read-out: half-life
  half-life: > 48 h
[2]
  bioavailability: 85.1 ± 24.5%
[13]
  solubility: > 408 mg/mL

## Nc1ccn([C@@H]2CS[C@H](CO)O2)c(=O)n1 [3TC, (-)-enantiomer of cis-2-hydroxymethyl-5-(cytosin-1-yl)-1,3-oxathiolane, reference compound]
[14]; 2.2.15 cells
  S.I. (CC50/EC90): > 5,000

## CC(C)[C@H](N)C(=O)OC[C@@H]1O[C@H](n2ccc(N)nc2=O)C[C@H]1O [5'-val-L-dC, 5'-L-valine ester of 2'-deoxy-β-L-cytidine hydrochloride]
[4]; iv
  share of drug excreted in the urine (total recovered dose): ~3.7%
[4]; iv, 10 mg/kg
  concentration at 2 h: 80 nM
[4]; po
  share of drug excreted in the urine (total recovered dose): ~0.2%
[8]
  AUClast higher for females than males: 25-50%
  AUClast higher on Day 28 vs. Day 1: 30-62%
[8]; po
  Tmax: 1 to 2 h
[15]
  Tlast (median): 10 h
[15]; po
  median Tmax: 1 h
[2]
  bioavailability: 39 ± 11.4%

## Nc1ccn([C@H]2C[C@H](O)[C@@H](CO)O2)c(=O)n1 [D-dC, D-Deoxycytidine]
[1]; [31]
  P(B/A): 0.039
  log P (octanol/water): -1.41

## O=c1[nH]c(=O)n([C@@H]2O[C@H](CO)[C@@H](O)[C@@H]2F)cc1I [FIAU, fialuridine]
[16]
  activity: 203%
  activity at 336 h: 86%
[17]; Conc. (µM): L-dC 10, FIAU 10, ZDV 50, ddC 1
  Lipid Droplet Formation: positive
[17]; Conc. (µM): L-dC 10, FIAU 10, ZDV 50, ddC 1, electron microscopy
  Mitochondrial Morphology: abnormal
[17]; HepG2 cells
  increase of lactic acid production compared to vehicle control: 100%

## Nc1ccn([C@@H]2C[C@@H](O)[C@H](CO)O2)c(=O)n1 [L-dC, 2'-deoxy-β-L-cytidine]
[18]
  EC50 VZV (HFF): 18.6 µg/mL (≈ 0.0819 mM)
[19]
  EC50 EBV (Daudi): >50 µg/mL
[20]; compared to control animals, 28 days 0.01-10 mg/kg/day
  body weight: no weight loss
[20]; four-week treatment phase and eight-week follow-up, 0.01-10 mg/kg/day orally
  toxicity: no drug-related toxicity; also recorded: No toxicity was observed
[21]; 12-week treatment phase and 12-week follow-up
  toxicity: no drug-related toxicity
[21]; 12 weeks
  end-of-treatment liver biopsies: no histomorphological evidence of fatty changes (microvesicular steatosis); also recorded: no evidence of fatty change (microvesicular steatosis)
[17]
  Lipid Droplet Formation: negative
[17]; HepG2 cells, after 14 days of treatment
  CC50: > 2000 µM
[22]; concentrations up to 5000 µg/plate
  mutagenicity: not mutagenic
[22]; concentrations up to 5000 mg/plate, with and without rat liver S-9
  mutagenicity: no evidence of mutagenicity
[23]
  EC50: > 200 µM
[24]; iv, 10 mg/kg
  AUC(0-t): 81.1 µM·h
[24]; po, 10 mg/kg
  AUC(0-t): 13.7 µM·h
[25]; 2.2.15
  CC50: > 2000 µM
[25]; 2.2.15 cells, 50% inhibition of neutral red dye uptake, combination study
  CC50: 3000 ± 96 µM
[14]; 2.2.15 cells
  S.I. (CC50/EC90): 2,727
[14]; viral rebound after drug withdrawal, 2.2.15 cells
  HBV replication returned to 50% of pretreatment levels: ≤ 18 day post-treatment

## Nc1ccn([C@@H]2C[C@@H](O)[C@H](COP(=O)(O)OP(=O)(O)OP(=O)(O)O)O2)c(=O)n1 [L-dC-TP]
[26]; endogenous polymerase assay, read-out: IC50 viral DNA pol (WHV DNA polymerase)
  IC50: 1.82 ± 0.23 µM
[27]
  intracellular metabolite level: 14.2 ± 3.1 µM
[28]
  intracellular metabolite level: 39.3 µM

## Cc1cn([C@@H]2C[C@@H](O)[C@H](CO)O2)c(=O)[nH]c1=O [L-dT, β-L-2'-deoxythymidine, reference compound]
[29]
  S.I. (CC50/EC90): 2,518
[14]; 10-fold reduction of HBV virion DNA levels, combination study
  EC90: 1.2 ± 0.1 µM

## O=c1ccn([C@@H]2C[C@@H](O)[C@H](CO)O2)c(=O)[nH]1 [L-dU, β-L-2'-deoxyuridine]
[4]; iv
  share of drug excreted in the urine (total recovered dose): approximately 2.5%
[4]; iv, 10 mg/kg
  concentration: 220 to 880 nM
[4]; po
  share of drug excreted in the urine (total recovered dose): approximately 2.5%
[4]; po, 10 mg/kg, 8 h
  concentration: 390 nM
[5]; in vivo
  share of drug excreted in the urine (recovered dose): approximately 10%
[24]; iv, 10 mg/kg
  share of the dose recovered in the urine: 4.0%
[24]; po
  share of drug excreted in the urine (total recovered dose): 29%
[30]
  share of drug excreted in the urine (total recovered dose): 23%

## O=c1ccn([C@@H]2C[C@@H](O)[C@H](COP(=O)(O)OP(=O)(O)OP(=O)(O)O)O2)c(=O)[nH]1 [L-dU-TP, β-L-2'-deoxyuridine 5'-triphosphate]
[26]; target as printed, read-out: IC50 in vitro against hepatitis B virus DNA polymerase
  IC50: 5.26 µM
[27]
  intracellular metabolite level: 46.9 ± 5.2 µM
[28]
  intracellular metabolite level: 21.9 µM

## CC(=O)Nc1ccn([C@@H]2C[C@@H](O)[C@H](CO)O2)c(=O)n1 [N^4-acetyl-L-dC, N^4-Acetyl-2'-deoxy-β-L-cytidine]
[12]; pH 1.2, read-out: half-life
  half-life: 0.833 h

## Nc1ccn([C@H]2CC[C@@H](CO)O2)c(=O)n1 [ddC, zalcitabine]
[16]
  activity: 95 ± 4.4%
  activity at 336 h: 13%
  inhibition at 336 h: 87%
[17]
  Lipid Droplet Formation: negative
  Mitochondrial Morphology: abnormal
